# Results taken from PubChem BioAssay (NCI).
#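 The compound was tested at five concentrations on cells cultured in 96-well plates, with a 48-hour exposure period. At the GI50, growth is halved. The concentration for full growth arrest is given as TGI.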
# Experiments:
# Assay in all cases: inhibition of tumour cell growth, NCI panel, 48 h
# [1] = tested on: HCC-2998 colon
# [2] = tested on: UO-31 renal
# [3] = tested on: 786-0 renal
# [4] = tested on: OVCAR-8 ovarian
# [5] = tested on: KM12 colon
# [6] = tested on: BT-549 breast
# [7] = tested on: RXF 393 renal
# [8] = tested on: COLO 205 colon
# [9] = tested on: HL-60(TB) leukemia
# [10] = tested on: MCF7 breast
# [11] = tested on: SNB-75 CNS
smiles,measurement,setting,value
COP(C)(=O)C(Cc1c[nH]c2ccccc12)NC(=O)OCc1ccccc1 (centres undefined),TGI,[1],> 100 µM
same,TGI,[2],> 100 µM
same,TGI,[3],> 100 µM
same,TGI,[4],> 100 µM
same,TGI,[5],> 100 µM
same,TGI,[6],> 100 µM
same,TGI,[7],> 100 µM
same,TGI,[8],> 100 µM
same,TGI,[9],> 100 µM
same,TGI,[10],> 100 µM
C=CC(Br)(CBr)CCC(Br)C(C)C (centres undefined),TGI,[11],6.13 µM
same,TGI,[2],26.3 µM
same,TGI,[3],2.93 µM
same,TGI,[4],8.58 µM
same,TGI,[5],4.83 µM
same,TGI,[6],11.5 µM
same,TGI,[7],20.3 µM
same,TGI,[8],19.8 µM
same,TGI,[9],2.04 µM
same,TGI,[10],3.75 µM
COc1cc2c(c(OC)c1OC)-c1ccc(SC)cc1C(=O)CC2,TGI,[1],39.6 µM
same,TGI,[11],> 100 µM
same,TGI,[3],> 100 µM
same,TGI,[4],> 100 µM
same,TGI,[6],> 100 µM
same,TGI,[7],> 100 µM
same,TGI,[9],10.8 µM
same,TGI,[10],> 100 µM
CC(=O)O[C@H]1CC[C@H]2[C@@H]3CCC(C(C)=O)[C@H](C(=O)O)[C@H]3CC[C@]12C (some centres undefined),TGI,[1],> 100 µM
same,TGI,[2],> 100 µM
same,TGI,[4],> 100 µM
same,TGI,[5],> 100 µM
same,TGI,[6],> 100 µM
same,TGI,[7],> 100 µM
same,TGI,[8],> 100 µM
same,TGI,[9],> 100 µM
same,TGI,[10],> 100 µM
COc1ccc(C[C@@H]2OC3(C=CC(=O)C=C3)O[C@H]2Cc2ccc(OC)cc2)cc1,TGI,[1],2.95 µM
same,TGI,[11],3.04 µM
same,TGI,[2],0.379 µM
same,TGI,[3],0.412 µM
same,TGI,[4],0.645 µM
same,TGI,[5],5.04 µM
same,TGI,[6],0.505 µM
same,TGI,[7],0.79 µM
same,TGI,[8],2.79 µM
same,TGI,[9],5.04 µM
same,TGI,[10],5.68 µM
C#CCOC(=O)C(N)CCSC (centres undefined),TGI,[11],> 100 µM
same,TGI,[2],> 100 µM
same,TGI,[3],> 100 µM
same,TGI,[4],> 100 µM
same,TGI,[5],> 100 µM
same,TGI,[6],> 100 µM
same,TGI,[7],> 100 µM
same,TGI,[8],> 100 µM
same,TGI,[9],> 100 µM
same,TGI,[10],> 100 µM
CC1(C)C2CCC(N)(C2)C1O (centres undefined),TGI,[1],> 100 µM
same,TGI,[11],> 100 µM
same,TGI,[2],> 100 µM
same,TGI,[3],> 100 µM
same,TGI,[4],> 100 µM
same,TGI,[5],> 100 µM
same,TGI,[6],> 100 µM
same,TGI,[7],> 100 µM
same,TGI,[8],> 100 µM
same,TGI,[10],> 100 µM
COC(=O)[C@H](CCSC)NC(=O)c1ccc(CNC(=O)/C(C)=C/c2ccccc2)cc1,TGI,[1],83.6 µM
same,TGI,[11],28.4 µM
same,TGI,[2],> 100 µM
same,TGI,[3],41.8 µM
same,TGI,[4],51.4 µM
same,TGI,[5],> 100 µM
same,TGI,[6],60.9 µM
same,TGI,[7],51.1 µM
same,TGI,[8],> 100 µM
same,TGI,[10],> 100 µM
CC1CN=C(c2ccc(COc3ccc(C4=NCC(C)N4)cc3)cc2)N1 (centres undefined),TGI,[1],> 100 µM
same,TGI,[11],64.4 µM
same,TGI,[2],> 100 µM
same,TGI,[3],> 100 µM
same,TGI,[4],> 100 µM
same,TGI,[5],> 100 µM
same,TGI,[6],> 100 µM
same,TGI,[7],> 100 µM
same,TGI,[8],> 100 µM
same,TGI,[9],> 100 µM
same,TGI,[10],> 100 µM
Cc1ccc2c(=O)c(-c3n[nH]c(=S)s3)c[nH]c2n1,TGI,[2],> 100 µM
same,TGI,[3],> 100 µM
same,TGI,[4],> 100 µM
same,TGI,[5],> 100 µM
same,TGI,[6],> 100 µM
same,TGI,[7],> 100 µM
same,TGI,[8],> 100 µM
same,TGI,[9],> 100 µM
same,TGI,[10],> 100 µM
O=[N+]([O-])c1ccc2ncccc2c1CCc1c([N+](=O)[O-])ccc2ncccc12,TGI,[1],> 100 µM
same,TGI,[11],> 100 µM
same,TGI,[2],> 100 µM
same,TGI,[3],> 100 µM
same,TGI,[4],> 100 µM
same,TGI,[5],> 100 µM
same,TGI,[6],> 100 µM
same,TGI,[7],> 100 µM
same,TGI,[8],> 100 µM
same,TGI,[9],> 100 µM
same,TGI,[10],> 100 µM
CN1B(c2ccccc2)N(C)C(=O)N(C)C1=O,TGI,[11],> 100 µM
same,TGI,[2],> 100 µM
same,TGI,[3],> 100 µM
same,TGI,[4],> 100 µM
same,TGI,[5],> 100 µM
same,TGI,[6],> 100 µM
same,TGI,[7],> 100 µM
same,TGI,[8],> 100 µM
same,TGI,[9],> 100 µM
same,TGI,[10],> 100 µM
Cc1cc(C)c(N=Nc2c(O)c(S(=O)(=O)O)cc3cc(S(=O)(=O)O)ccc23)cc1C,TGI,[11],> 100 µM
same,TGI,[2],> 100 µM
same,TGI,[3],> 100 µM
same,TGI,[4],> 100 µM
same,TGI,[5],> 100 µM
same,TGI,[6],> 100 µM
same,TGI,[7],> 100 µM
same,TGI,[8],> 100 µM
O=[N+]([O-])c1cc(Cl)ccc1S(=O)(=O)N1CCCc2cc(Cl)ccc21,TGI,[1],> 100 µM
same,TGI,[11],> 100 µM
same,TGI,[2],> 100 µM
same,TGI,[3],> 100 µM
same,TGI,[4],> 100 µM
same,TGI,[5],> 100 µM
same,TGI,[6],> 100 µM
same,TGI,[7],> 100 µM
same,TGI,[8],> 100 µM
same,TGI,[10],> 100 µM
N=C(c1cccs1)C1(N2CCCCC2)CCCCC1,TGI,[1],27.1 µM
same,TGI,[2],30.5 µM
same,TGI,[3],> 100 µM
same,TGI,[5],34.6 µM
same,TGI,[6],41.9 µM
same,TGI,[7],29.5 µM
same,TGI,[9],33.6 µM
same,TGI,[10],30.5 µM
C=CCC(SC)C1=C(C)C(=O)c2ccccc21 (centres undefined),TGI,[1],> 10 µM
same,TGI,[2],> 10 µM
same,TGI,[3],> 10 µM
same,TGI,[4],> 10 µM
same,TGI,[5],> 10 µM
same,TGI,[6],> 10 µM
same,TGI,[7],> 10 µM
same,TGI,[10],> 10 µM
COc1cccc(-c2cc(=O)c3cc(Cl)cnc3[nH]2)c1,TGI,[1],3.83 µM
same,TGI,[11],> 100 µM
same,TGI,[2],> 62 µM
same,TGI,[3],42.2 µM
same,TGI,[4],43.9 µM
same,TGI,[5],44.2 µM
same,TGI,[6],> 100 µM
same,TGI,[7],> 100 µM
same,TGI,[8],7.59 µM
same,TGI,[10],> 78.8 µM
CCOC(=O)CC[C@H](N)C(=O)N[C@H](Cc1ccc(N(CCCl)CCCl)cc1)C(=O)OCC,TGI,[1],6.21 µM
same,TGI,[11],5.89 µM
same,GI50,[2],0.135 µM
same,TGI,[2],0.281 µM
same,TGI,[3],5.32 µM
same,TGI,[5],15.9 µM
same,TGI,[6],> 38 µM
same,TGI,[7],3.66 µM
same,TGI,[8],4.26 µM
same,TGI,[9],38.9 µM
same,TGI,[10],> 47.5 µM
O=S(=O)(/N=C(\NO)Nc1ccc(Cl)cc1)c1ccc(-c2ccccn2)s1,TGI,[11],> 100 µM
same,TGI,[2],> 100 µM
same,TGI,[4],> 100 µM
same,TGI,[5],> 100 µM
same,TGI,[6],> 100 µM
same,TGI,[7],94.4 µM
same,TGI,[8],> 100 µM
same,TGI,[9],> 100 µM
CC(C)c1cccc(C(C)C)c1OS(=O)(=O)NC(=O)OC(C(F)(F)F)C(F)(F)F,TGI,[1],> 100 µM
same,TGI,[2],> 100 µM
same,TGI,[4],> 100 µM
same,TGI,[5],> 100 µM
same,TGI,[6],> 100 µM
same,TGI,[8],> 100 µM
same,TGI,[9],> 100 µM
same,TGI,[10],> 100 µM
COc1ccc(N2C(=O)C3CC4=CC(=O)C[C@H]4[C@H]32)cc1 (some centres undefined),TGI,[1],> 100 µM
same,TGI,[11],> 100 µM
same,TGI,[2],> 100 µM
same,TGI,[3],> 100 µM
same,TGI,[4],> 100 µM
same,TGI,[5],> 100 µM
same,TGI,[6],> 100 µM
same,TGI,[7],> 100 µM
same,TGI,[8],> 100 µM
same,TGI,[10],> 100 µM
CCN(CC)CCC(=O)c1ccc(Oc2ccc(F)cc2)cc1,TGI,[1],37.1 µM
same,TGI,[11],47.8 µM
same,TGI,[3],28 µM
same,TGI,[4],57.6 µM
same,TGI,[5],36.6 µM
same,TGI,[6],32.8 µM
same,TGI,[7],30.5 µM
same,TGI,[8],33.7 µM
same,TGI,[10],38.7 µM
